Results as given in ChEMBL document CHEMBL1147290, “Toxicants from mangrove plants, V. Isolation of the piscicide, 2-hydroxy-5-methoxy-3-undecyl-1,4 benzoquinone (5-O-methylembelin) from Aegiceras corniculatum” (J Nat Prod, 1989).

Experiments:
[1] = system: Globisporangium ultimum; experiment: Antifungal activity against Pythium ultimum at 1 mg; format: functional; details: read-out: IZ
[2] = system: Oreochromis niloticus; experiment: Toxicity in Tilapia nilotica at 1 ppm within 75 mins; format: organism-based; details: in vivo, 1.25 h

**Q.** How did the zone of inhibition at 1000 µg/disc [1] turn out when `CCCCCCCCCCCC1=C(O)C(=O)C=C(OC)C1=O` [5-O-METHYLEMBELIN] was run?
**A.** Its zone of inhibition at 1000 µg/disc is 8 mm.

**Q.** And the Activity [2]?
**A.** The Activity was “Toxic”.
